The results in this text go back to patent US12134620B2 (ARAXES PHARMA LLC, priority 2018, dated 2024).

This assay concerns the target T1, KRAS G12C 1-169, his-tagged protein, GDP-loaded (Homo sapiens, UniProt P01116, G12C).
T1 construct: KRAS G12C 1-169, his-tagged protein, GDP-loaded; His tag
The experiment in a line: Biochemical assay: covalent modification of KRAS G12C, analysed by mass spectrometry (RapidFire/TOF or Q-Exactive). It is filed as binding. The conditions noted are these: Modification activity, modification percentage from MS peak intensities. As for the experimental part: Test compounds are prepared as 10 mM stock solutions in DMSO (Fisher cat. #BP-231-100). KRAS G12C 1-169, his-tagged protein, GDP-loaded is diluted to 2 μM or 0.5 μM in buffer (20 mM Hepes, 150 mM NaCl, 1 mM MgCl2). Compounds are tested for activity as follows:
Compounds are diluted to 50× final test concentration in DMSO in 96-well storage plates. Compound stock solutions are vortexed before use and observed carefully for any sign of precipitation. Dilutions are as follow: • For 32 μM final compound concentration, compounds are diluted to 1600 μM (3 μL 10 mM compound stock+15.75 μL DMSO and mixed well by pipetting. • For 8 μM final compound concentration, compounds are diluted to 400 μM (2 μL 10 mM compound stock+48 μL DMSO) and mixed well by pipetting. 49 μL of the stock protein solution is added to each well of a 96-well PCR plate (Fisher cat #1423027). 1 μl of the diluted 50× compounds are added to appropriate wells in the PCR plate using 12-channel pipettor. Reactions are mixed carefully and thoroughly by pipetting up/down with a 200 μL multi-channel pipettor. The plate is sealed well with aluminum plate seal, and protein and compound are allowed to react for a desired amount of time. 5 μL of 2% formic acid (Fisher cat #A117) in de-ionized H2O is then added to each well followed by mixing with a pipette to quench the reaction. The plate is then resealed with aluminum seal and stored frozen on dry ice until analyzed as described below.
The above described assays are analyzed by mass spectrometry according to one of the following two procedures:
The MS instrument is set to positive polarity, 2 GHz resolution, and low mass (1700) mode and allowed to equilibrate for 30 minutes. The instrument is then calibrated, switched to acquisition mode and the appropriate method loaded.
After another 30 minute equilibration time, a blank batch (i.e., buffer) is run to ensure equipment is operating properly. The samples are thawed at 37° C. for 10 minutes, briefly centrifuged, and transfer to the bench top. Wells A1 and H12 are spiked with 1 μL 500 μM internal standard peptide, and the plates centrifuged at 2000×g for 5 minutes. The method is then run and masses of each individual well recorded.
The masses (for which integration data is desired) for each well are pasted into the platemap and exported from the analysis. Masses for the internal standards are exported as well. The data at 50 ppm is extracted for the +19 charge state, and identity of well A1 is assigned using the internal standard spike and integrated. Peak data is exported as a TOF list and the above steps are repeated individually, for the +20, +21, +22, +23, +24, and +25 charge states.
The masses and peak intensities of KRAS G12C protein species are measured using a Dionex RSLCnano system (Thermo Scientific) connected to a Q Exactive Plus mass spectrometer (Thermo Scientific).
20 μL of sample is each loaded onto a Aeris™ 3.6 μm WIDEPORE C4 200 Å, LC Column 50×2.1 mm column maintained at 40° C. at a flow rate of 600 μL/min with 80% Solvent A (0.1% formic acid in H2O) and 20% Solvent B (0.1% formic acid in acetonitrile). The liquid chromatography conditions are 20% solvent B for 1 minute, 20% to 60% solvent B for 1.5 minutes, 60% to 90% solvent for 0.5 minute, 90% solvent B for 0.2 minute, 90% to 20% solvent B for 0.2 minute, and then equilibrated for 1.6 minute before the following sample injection. The flow rate is maintained at 600 μL/min throughout the sample analysis.
The mass spectrometer is operated in profile mode at a resolution of 17500, 5 microscans, using 50 msec max injection time and an AGC target of 1×10^6, and a full mass range from 800-1850 m/z is recorded. The intact protein mode is applied for optimal ion transfer and maximum sensitivity. The ionization method is electrospray ionization, which used a spray voltage of 4 kV, sheath gas flow set to 50 AU, auxiliary gas flow set to 10 AU and sweep gas flow set to 1 AU. […]
Take `C=CC(=O)N1CC2(CCN(c3nc(OCCN4CCC(F)(F)C4)nc(-c4c(C)ccc5[nH]ncc45)c3C#N)C2)C1` [Compound I-21, 4-(2-acryloyl-2,6-diazaspiro[3.4]octan-6-yl)-2-(2-(3,3-difluoropyrrolidin-1-yl)ethoxy)-6-(5-methyl-1H-indazol-4-yl)pyrimidine-5-carbonitrile]: the Binding % result is reported as “++ (++ indicates binding activity from 50 to 85%)”. The value for `C=CC(=O)N1CC2(CCN(c3nc(OC[C@@H]4CCCN4C)nc(-c4cc(O)ccc4C)c3C#N)C2)C1` [Compound I-22, (S)-4-(2-acryloyl-2,6-diazaspiro[3.4]octan-6-yl)-6-(5-hydroxy-2-methylphenyl)-2-((1-methylpyrrolidin-2-yl)methoxy)pyrimidine-5-carbonitrile] was “+ (+ indicates binding activity greater than 0% and up to 50%)”.

Consider `C=CC(=O)N1CC2(CCN(c3nc(N4CCCC4=O)nc(-c4c(C)ccc5[nH]ncc45)c3C#N)C2)C1` [Compound I-23, 4-(2-acryloyl-2,6-diazaspiro[3.4]octan-6-yl)-6-(5-methyl-1H-indazol-4-yl)-2-(2-oxopyrrolidin-1-yl)pyrimidine-5-carbonitrile], for which the Binding % result is listed as “++ (++ indicates binding activity from 50 to 85%)”. In the case of `C=CC(=O)N1CC2(CCN(c3nc(N4Cc5ccccc5C4)nc(-c4c(C)ccc5[nH]ncc45)c3C#N)C2)C1` [Compound I-24, 4-(2-acryloyl-2,6-diazaspiro[3.4]octan-6-yl)-2-(isoindolin-2-yl)-6-(5-methyl-1H-indazol-4-yl)pyrimidine-5-carbonitrile], the Binding % entry is recorded as “++ (++ indicates binding activity from 50 to 85%)”. On to `C=CC(=O)N1CC2(CCN(c3nc(OC4CCOCC4)nc(-c4c(C)ccc5[nH]ncc45)c3C#N)C2)C1` [Compound I-25, 4-(2-acryloyl-2,6-diazaspiro[3.4]octan-6-yl)-6-(5-methyl-1H-indazol-4-yl)-2-((tetrahydro-2H-pyran-4-yl)oxy)pyrimidine-5-carbonitrile], for which the Binding % result is “+ (+ indicates binding activity greater than 0% and up to 50%)”. Next, `C=CC(=O)N1CC2(CCN(c3nc(OC[C@@H]4CCCN4C)nc(-c4cccc5c4OCCO5)c3C#N)C2)C1` [Compound I-26, (S)-4-(2-acryloyl-2,6-diazaspiro[3.4]octan-6-yl)-6-(2,3-dihydrobenzo[b][1,4]dioxin-5-yl)-2-((1-methylpyrrolidin-2-yl)methoxy)pyrimidine-5-carbonitrile]: “+ (+ indicates binding activity greater than 0% and up to 50%)”; `C=CC(=O)N1CC2(CCN(c3nc(N4CCC(F)(F)C4)nc(-c4c(C)ccc5[nH]ncc45)c3C#N)C2)C1` [Compound I-27, 4-(2-acryloyl-2,6-diazaspiro[3.4]octan-6-yl)-2-(3,3-difluoropyrrolidin-1-yl)-6-(5-methyl-1H-indazol-4-yl)pyrimidine-5-carbonitrile]: “+++ (+++ indicates binding activity greater than 85%)”; `C=CC(=O)N1CC2(CCN(c3nc(N4CCN(C)C(=O)C4)nc(-c4c(C)ccc5[nH]ncc45)c3C#N)C2)C1` [Compound I-28, 4-(2-acryloyl-2,6-diazaspiro[3.4]octan-6-yl)-6-(5-methyl-1H-indazol-4-yl)-2-(4-methyl-3-oxopiperazin-1-yl)pyrimidine-5-carbonitrile]: “+++ (+++ indicates binding activity greater than 85%)”. The value for `C=CC(=O)N1CC2(CCN(c3nc(OC[C@@H]4CCCN4C)nc(-c4c(C)ccc5[nH]cnc45)c3C#N)C2)C1` [Compound I-29, 4-(2-acryloyl-2,6-diazaspiro[3.4]octan-6-yl)-6-(5-methyl-1H-benzo[d]imidazol-4-yl)-2-(((S)-1-methylpyrrolidin-2-yl)methoxy)pyrimidine-5-carbonitrile] was “+ (+ indicates binding activity greater than 0% and up to 50%)”; that for `C=CC(=O)N1CC2(CCN(c3nc(N4CCN(C)CC4)nc(-c4c(C)ccc5[nH]ncc45)c3C#N)C2)C1` [Compound I-30, 4-(2-acryloyl-2,6-diazaspiro[3.4]octan-6-yl)-6-(5-methyl-1H-indazol-4-yl)-2-(4-methylpiperazin-1-yl)pyrimidine-5-carbonitrile] was “+++ (+++ indicates binding activity greater than 85%)”. As for `C=CC(=O)N1CC2(CCN(c3nc(OC[C@@H]4CCCN4C)nc(-n4ccnc4)c3C#N)C2)C1` [Compound I-31, (S)-4-(2-acryloyl-2,6-diazaspiro[3.4]octan-6-yl)-6-(1H-imidazol-1-yl)-2-((1-methylpyrrolidin-2-yl)methoxy)pyrimidine-5-carbonitrile], the Binding % result was “+ (+ indicates binding activity greater than 0% and up to 50%)”. Next, `C=CC(=O)N1CC2(CCN(c3nc(N4CCC5(CCN(C)CC5)C4)nc(-c4c(C)ccc5[nH]ncc45)c3C#N)C2)C1` [Compound I-32, 4-(2-acryloyl-2,6-diazaspiro[3.4]octan-6-yl)-6-(5-methyl-1H-indazol-4-yl)-2-(8-methyl-2,8-diazaspiro[4.5]decan-2-yl)pyrimidine-5-carbonitrile]: “++ (++ indicates binding activity from 50 to 85%)”. Next, `C=CC(=O)N1CC2(CCN(c3nc(N4CCOCC4)nc(-c4c(C)ccc5[nH]nc(N)c45)c3C#N)C2)C1` [Compound I-33, 4-(2-acryloyl-2,6-diazaspiro[3.4]octan-6-yl)-6-(3-amino-5-methyl-1H-indazol-4-yl)-2-morpholinopyrimidine-5-carbonitrile]: “+++ (+++ indicates binding activity greater than 85%)”; `C=CC(=O)N1CC2(CCN(c3nc(N4CCCC4)nc(-c4c(C)ccc5[nH]nc(N)c45)c3C#N)C2)C1` [Compound I-34, 4-(2-acryloyl-2,6-diazaspiro[3.4]octan-6-yl)-6-(3-amino-5-methyl-1H-indazol-4-yl)-2-(pyrrolidin-1-yl)pyrimidine-5-carbonitrile]: “+++ (+++ indicates binding activity greater than 85%)”; `C=CC(=O)N1CC2(CCN(c3nc(OC[C@@H]4CCCN4C)nc(-c4cnn(CCO)c4)c3C#N)C2)C1` [Compound I-35, (S)-4-(2-acryloyl-2,6-diazaspiro[3.4]octan-6-yl)-6-(1-(2-hydroxyethyl)-1H-pyrazol-4-yl)-2-((1-methylpyrrolidin-2-yl)methoxy)pyrimidine-5-carbonitrile]: “+ (+ indicates binding activity greater than 0% and up to 50%)”. On to `C=CC(=O)N1CC2(CCN(c3nc(OC[C@@H]4CCCN4C)nc(Nc4ccccc4C(N)=O)c3C#N)C2)C1` [Compound I-36, (S)-2-((6-(2-acryloyl-2,6-diazaspiro[3.4]octan-6-yl)-5-cyano-2-((1-methylpyrrolidin-2-yl)methoxy)pyrimidin-4-yl)amino)benzamide], for which the Binding % result was “+ (+ indicates binding activity greater than 0% and up to 50%)”. The value for `C=CC(=O)N1CC2(CCN(c3nc(OC[C@@H]4CCN(C)C4)nc(-c4c(C)ccc5[nH]ncc45)c3C#N)C2)C1` [Compound I-37, 4-(2-acryloyl-2,6-diazaspiro[3.4]octan-6-yl)-6-(5-methyl-1H-indazol-4-yl)-2-(((R)-1-methylpyrrolidin-3-yl)methoxy)pyrimidine-5-carbonitrile] was “+ (+ indicates binding activity greater than 0% and up to 50%)”.
